{
  "source": "patent US11078496B2",
  "about": "“System for F-box hormone receptor regulated protein expression in mammalian cells” (ICAHN SCHOOL OF MEDICINE AT MOUNT SINAI, priority 2016, dated 2021)",
  "system": "A-CHK1 mESCs",
  "test": "Aphidicolin sensitivity of A-CHK1 mESCs (crystal violet staining)",
  "type": "cell-based, mouse",
  "procedure": "FIG. 5A is a western blot analysis depicting endogenous CHK1 (*) and AID^47-CHK1 (A-CHK1, **) in four selected clones and in parental non-infected mESCs. […] serves as a loading control. Experiment was repeated three times for clones #1 and #2, and a representative blot is presented. In FIG. 5B, A-CHK1 #2 mESCs were treated with ethanol (“Con”) or auxin (“IAA”) for 1 day. Cells were then treated with the indicated concentrations of aphidicolin (“Aph”). Equal concentrations of DMSO were applied to all conditions. The next day, cells were stained with crystal violet and plates were scanned. […] In FIG. 5C, mESC clones were pretreated with […] aphidicolin for 1 day and were then treated with auxin for the indicated time periods. Left panel: mitotic index was calculated as the percentage of H3^pS10-positive cells with 4N DNA content, measured by flow cytometry. […] Tyr15 phosphorylation of CDK1 (“CDKlpY^15”) was detected using a phospho-specific antibody. β-Actin serves as a loading control. […]\nCCE mESCs were infected with pRAIDRS A-CHK1 or GFP-A. Selected clones were analyzed for their CHK1-dependent response to aphidicolin treatment. […] Cells were then treated with 1 μM 5 aphidicolin (“Aph”) or 0.001% DMSO for 12 hours and analyzed for DNA content using propidium iodide (“PI”). […] Apoptotic index was calculated as the percentage of Annexin V-positive, 7-AAD-negative cells. […]",
  "data": [
    {"smiles": "C[C@@]1(CO)[C@H](O)CC[C@@]2(C)[C@H]1CC[C@H]1C[C@@H]3C[C@@]12CC[C@]3(O)CO", "note": "[aphidicolin, Aphidicolin]", "values": [
      {"measurement": "aphidicolin concentration after which cells died", "setting": "auxin-treated (CHK1-depleted) A-CHK1 mESCs", "value": 0.1, "unit": "mM"},
      {"measurement": "fold higher aphidicolin concentration at which control cells survived", "setting": "control-treated A-CHK1 cells versus auxin-treated cells", "value": 100, "unit": "fold"}
    ]}
  ]
}
